US20150219624A1, “METHODS FOR IDENTIFYING ANTI-CANCER COMPOUNDS” (MEMORIAL SLOAN KETTERING CANCER CENTER, priority 2013, published 2015)
Values joined by “and” are separate entries in the source; they are usually repeats but may differ in a detail not shown here. Identical values can stand only once.

Test: In vivo toxicity studies (body and organ weights, hematology, clinical chemistry, histopathology)
Conditions: for CHOL, % ChVh / Ca, % ChVh / Cl, % ChVh / GLUC, % ChVh / K, % ChVh / Na, % ChVh / Na/K, % ChVh / P, % ChVh / CHOL, Mean / Ca, Mean / Cl, Mean / GLUC, Mean / K, Mean / Na, Mean / P, Mean: 0.2 mg/kg Female
Protocol: Toxicity studies. Eight week-old C57Bl/6NTac female mice were randomly assigned to either control or treatment groups. Each treatment group received one daily dose of test article through i.p. injection over 5 consecutive days. Toxicity was monitored by weight loss and daily clinical observation for the 14 days following test article administration. 24 hours after the last test article administration 4 mice in each group were sacrificed and clinical chemistry, hematology and tissue specific histopathology were done at autopsy. The remaining mice (n=2 per group) were kept under observation for an additional 13 days; at that point all mice were sacrificed and clinical chemistry, hematology and tissue specific histopathology were done at time of autopsy.
D) KOPT-K1 xenograft studies.

[1] = 0.2 mg/kg, female, Day 5, % change of mean vs vehicle
[2] = 0.2 mg/kg, female, Day 5, fold change of mean vs vehicle
[3] = 0.2 mg/kg, female, Day 5, group mean
[4] = 0.2 mg/kg, female, Day 5, individual animals

## (±)-CR-31-B
Day 5, change vs vehicle
  CHOL, % ChVh: 0.0%
  Ca, % ChVh: 2.2%
  Cl, % ChVh: 0.6%
  GLUC, % ChVh: 1.8%
  K, % ChVh: −4.5%
  Na, % ChVh: −0.2%
  Na/K, % ChVh: 1.4%
  P, % ChVh: −14.6%
Day 5, group mean, N 4
  CHOL, Mean: 66.0 mg/dL
  Ca, Mean: 9.1 mg/dL
  Cl, Mean: 114.0 mEq/L
  GLUC, Mean: 297.3 mg/dL
  K, Mean: 4.2 mEq/L
  Na, Mean: 149.0 mEq/L
  P, Mean: 7.0 mg/dL
Day 19, change vs vehicle
  CHOL, % ChVh: −2.3%
  Ca, % ChVh: −3.2%
  Cl, % ChVh: −1.3%
  GLUC, % ChVh: −7.9%
  K, % ChVh: −9.5%
  Na, % ChVh: 0.0%
  Na/K, % ChVh: 12.9%
  P, % ChVh: 50.0%
Day 19, group mean, N 2
  CHOL, Mean: 65.0 mg/dL
  Ca, Mean: 9.2 mg/dL
  Cl, Mean: 114.5 mEq/L
  GLUC, Mean: 240.5 mg/dL
  K, Mean: 3.8 mEq/L
  Na, Mean: 148.0 mEq/L
  P, Mean: 10.2 mg/dL
[1]
  ALB % ChVh: 3.3%
  BASO % % ChVh: −72.7%
  BASO (K/uL) % ChVh: −100.0%
  BUN % ChVh: 3.0%
  Body Weight % ChVh: −3.8%
  CRTN % ChVh: 11.1%
  EOS % % ChVh: −70.0%
  EOS (K/uL) % ChVh: 0.0%
  GLOB % ChVh: 5.9%
  HCT % % ChVh: 3.4%
  HGB % ChVh: 4.4%
  LYM % % ChVh: −14.6%
  LYM (K/uL) % ChVh: −21.2%
  Left Kidney (% body wt) % ChVh: −10.5%
  Left Kidney (gm) % ChVh: −12.5%
  Liver (% body wt) % ChVh: 2.1%
  Liver (gm) % ChVh: −1.6%
  MCH % ChVh: 2.5%
  MCHC % ChVh: 0.9%
  MCV % ChVh: 1.4%
  MONO % % ChVh: 21.2%
  MONO (K/uL) % ChVh: 8.3%
  MPV % ChVh: −5.6%
  NEUT % % ChVh: 97.8%
  NEUT (K/uL) % ChVh: 87.2%
  PLT % ChVh: −29.0%
  RBC % ChVh: 1.9%
  RDW % % ChVh: −0.6%
  Right Kidney (% body wt) % ChVh: −11.6%
  Right Kidney (gm) % ChVh: −15.4%
  Spleen (% body wt) % ChVh: 17.6%
  Spleen (gm) % ChVh: 13.6%
  TBIL % ChVh: 0.0%
  TP % ChVh: 4.3%
  WBC % ChVh: −7.7%
[2]
  ALP FoldChVh: 1.0
  ALT FoldChVh: 1.3
  AST FoldChVh: 1.2
[3]
  ALB: 3.1 g/dL
  ALP: 124.3 U/L
  ALT: 25.0 U/L
  AST: 41.3 U/L
  BASO: 0.00 K/uL
  BASO %: 0.03%
  BUN: 27.3 mg/d L
  Body Weight: 16.680 gm
  CRTN: 0.20 mg/dL
  EOS: 0.01 K/uL
  EOS %: 0.06%
  GGT: 0.0 U/L
  GLOB: 1.8 g/dL
  HCT %: 45.6%
  HGB: 13.7 g/dL
  LYM: 4.31 K/uL
  LYM %: 72.97%
  MCH: 15.3 pg
  MCHC: 30.0 g/dL
  MCV: 50.9 fL
  MONO: 0.13 K/uL
  MONO %: 2.17%
  MPV: 4.3 fL
  NEUT: 1.46 K/uL
  NEUT %: 24.77%
  PLT: 725.8 K/uL
  RBC: 8.96 M/uL
  RDW %: 15.8%
  TBIL: 0.18 mg/d L
  TP: 4.9 g/dL
  WBC: 5.91 K/uL
[4]
  ALB: 3.3 g/dL and 3.0 g/dL and 2.9 g/dL and 3.1 g/dL
  ALP: 116 U/L and 114 U/L and 123 U/L and 144 U/L
  ALT: 26 U/L and 20 U/L (2×) and 34 U/L
  AST: 51 U/L and 35 U/L (2×) and 44 U/L
  BASO: 0.00 K/uL
  BASO %: 0.07% and 0.04% and 0.00% (2×)
  BUN: 27 mg/d L (2×) and 26 mg/d L and 29 mg/d L
  Body Weight: 15.962 gm and 17.217 gm and 17.463 gm and 16.078 gm
  CHOL: 68 mg/dL and 66 mg/dL (2×) and 64 mg/dL
  CRTN: 0.2 mg/dL
  Ca: 8.9 mg/dL and 9.0 mg/dL and 9.3 mg/dL (2×)
  Cl: 116 mEq/L and 113 mEq/L (2×) and 114 mEq/L
  EOS: 0.00 K/uL (2×) and 0.01 K/uL (2×)
  EOS %: 0.01% and 0.14% and 0.00% and 0.10%
  GGT: 0 U/L
  GLOB: 1.8 g/dL (3×) and 1.9 g/dL
  GLUC: 270 mg/dL and 335 mg/dL and 261 mg/dL and 323 mg/dL
  HCT %: 48.3% and 45.1% and 43.9% and 45.0%
  HGB: 14.3 g/dL and 13.8 g/dL and 13.0 g/dL and 13.5 g/dL
  K: 4.6 mEq/L and 4.0 mEq/L and 4.4 mEq/L and 3.9 mEq/L
  LYM: 3.64 K/uL and 4.96 K/uL and 3.49 K/uL and 5.13 K/uL
  LYM %: 76.21% and 71.86% and 70.06% and 73.76%
  Left Kidney: 0.108 gm and 0.133 gm and 0.138 gm and 0.125 gm and 0.75 % body wt and 0.77 % body wt and 0.79 % body wt and 0.78 % body wt
  Liver: 0.807 gm and 0.969 gm and 0.914 gm and 0.843 gm and 5.06 % body wt and 5.63 % body wt and 5.23 % body wt and 5.24 % body wt
  MCH: 15.4 Pg (2×) and 15.0 Pg and 15.2 Pg
  MCHC: 29.6 g/dL (2×) and 30.6 g/dL and 30.0 g/dL
  MCV: 51.9 fL and 50.4 fL and 50.5 fL and 50.6 fL
  MONO: 0.08 K/uL and 0.24 K/uL and 0.09 K/uL and 0.12 K/uL
  MONO %: 1.77% and 3.45% and 1.74% and 1.70%
  MPV: 4.3 fL (3×) and 4.1 fL
